Data reported in paper PMC6399176, “Assembly of a heterodinuclear Mn/Fe cofactor is coupled to tyrosine–valine ether cross-link formation in the R2-like ligand-binding oxidase” (Journal of Biological Inorganic Chemistry, 2019).

Target: T1, R2loxI (R2-like ligand-binding oxidase, R2lox) (Geobacillus kaustophilus, UniProt Q5KW80, A171F)
T1 construct: gene GK2771; full-length, N-terminal hexahistidine tag, pET-46 Ek/LIC, E. coli BL21(DE3), purified metal-free
Assay: X-ray crystallography
Conditions: oxidized resting state, Mn/Fe-soaked crystal; ligand co-purified, further up in the tunnel, not at the metals; modelled as C8 acid from partial density, true identity and chain length uncertain

T1 sequence (Q5KW80 entry or part of it A171F): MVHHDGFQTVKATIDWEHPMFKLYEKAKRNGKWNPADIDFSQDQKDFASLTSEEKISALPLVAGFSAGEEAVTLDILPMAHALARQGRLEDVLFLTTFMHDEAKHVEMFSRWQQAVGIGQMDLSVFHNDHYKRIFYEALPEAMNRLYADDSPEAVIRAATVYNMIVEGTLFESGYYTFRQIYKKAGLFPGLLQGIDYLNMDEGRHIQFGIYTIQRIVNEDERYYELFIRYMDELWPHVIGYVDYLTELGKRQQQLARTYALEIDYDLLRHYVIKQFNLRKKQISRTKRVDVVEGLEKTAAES

`CCCCCCCC(=O)O` [caprylic (C8) acid] was tested, and the X-ray crystallography was “could only reasonably be modeled (as caprylic (C8) acid) in the oxidized state”.
